Where a name gives a salt, the structure may show the parent alone.
Molecular target: PRMT5 (Homo sapiens (Human), UniProt O14744)
Assay: Inhibitory activity against PRMT5 enzyme by radioisotopic method
Format: biochemical
Conditions: PRMT5 5 nM, [3H]-SAM 0.3 μM, polypeptide substrate GL-27 100 nM, room temperature
Description: Test Example 1. Test on the inhibitory activity of the compounds of the invention against PRMT5 enzyme by radioisotopic method
Test method: A 1× enzyme reaction buffer (10 mM Tris 8.0 (Sigma, Cat. No. T2694-1L), 0.01% Tween-20 (Sigma, Cat. No. P2287-100 ML), 1 mM DTT (Sigma, Cat. No. D0632-10G)) was prepared. PRMT5 (Active Motif, Cat. No. 31921) and [3H]—SAM (PerkinElmer, Cat. No. NET155V001MC) were added to the 1×enzyme reaction buffer, to prepare a 25/15× mixed solution (PRMT5 final concentration: 5 nM, [3H]—SAM final concentration: 0.3 μM). 15 μL of this solution was transferred into a 384-well microplate (Corning 384-well Polypropylene Storage Microplates, Cat. No. 3657) with various concentrations of the compounds (DMSO final concentration 1%), and incubated at room temperature for 60 minutes. A polypeptide substrate, GL-27 (Ac-[…]-K (Biotin) (GL Biochem, Cat. No. 342095)), was added into the 1×enzyme reaction buffer to prepare a 25/10× substrate solution. Then 10 μL of the polypeptide substrate solution (final concentration of the polypeptide substrate: 100 nM) was added, a reaction was stirred at room temperature for 120 minutes, and then 5 μL 6× ice cold SAM (Sigma, Cat. No. A7007-100 MG) solution was added to stop the reaction (SAM final concentration: 0.125 mM). 25 µL of the reaction mixture was transferred into a FlashPlate (Streptavidin FlashPlate HTS PLUS, High Capacity, 384-well, Perkin Elmer, Cat. No. SMP410A001PK), and incubated at room temperature for 1 h. After washed three times with distilled water containing 0.1% Tween-20, the microplate was read on a MicroBeta reader for CPM data (Counts Per Minute). […] Then the inhibition rate Inh % (Y) corresponding to each concentration (X) was input in EXCEL, and the IC50 value (the half maximal inhibitory concentration) of each compound was calculated with the XLfit plug-in according to the built-in four-parameter fitting equation Y=Bottom+(Top-Bottom)/(1+(IC50/X)[…]).

Chain of PRMT5 (O14744 whole entry): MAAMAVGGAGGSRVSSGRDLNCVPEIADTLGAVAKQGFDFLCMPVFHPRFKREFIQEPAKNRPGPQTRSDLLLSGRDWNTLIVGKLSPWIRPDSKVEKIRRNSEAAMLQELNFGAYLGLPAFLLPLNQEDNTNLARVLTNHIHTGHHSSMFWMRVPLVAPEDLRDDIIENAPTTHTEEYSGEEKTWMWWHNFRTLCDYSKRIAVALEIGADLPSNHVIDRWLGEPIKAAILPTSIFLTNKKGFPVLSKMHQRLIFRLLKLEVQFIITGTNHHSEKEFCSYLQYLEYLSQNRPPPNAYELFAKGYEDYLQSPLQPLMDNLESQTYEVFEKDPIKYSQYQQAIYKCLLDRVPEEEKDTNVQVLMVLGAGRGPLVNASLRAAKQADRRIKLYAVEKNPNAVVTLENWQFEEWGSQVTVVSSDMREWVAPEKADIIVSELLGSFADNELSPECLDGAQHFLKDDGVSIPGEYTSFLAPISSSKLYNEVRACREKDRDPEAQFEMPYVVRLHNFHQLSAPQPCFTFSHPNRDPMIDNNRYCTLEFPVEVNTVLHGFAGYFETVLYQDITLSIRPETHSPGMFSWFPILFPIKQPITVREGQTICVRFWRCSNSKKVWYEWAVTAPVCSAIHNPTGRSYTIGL
Chain of PRMT5 (Q9BQA1 whole entry partner): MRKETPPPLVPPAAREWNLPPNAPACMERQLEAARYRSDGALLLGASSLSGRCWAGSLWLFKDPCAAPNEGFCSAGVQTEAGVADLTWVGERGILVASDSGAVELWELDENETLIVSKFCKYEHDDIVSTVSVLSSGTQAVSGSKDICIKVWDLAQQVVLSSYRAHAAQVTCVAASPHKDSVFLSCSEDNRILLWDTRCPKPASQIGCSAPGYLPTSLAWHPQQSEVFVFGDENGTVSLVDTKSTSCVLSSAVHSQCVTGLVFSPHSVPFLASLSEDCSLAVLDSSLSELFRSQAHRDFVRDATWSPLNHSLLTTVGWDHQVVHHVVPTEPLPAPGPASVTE

SMILES | IC50 [nM]
COc1ccc(F)cc1Nc1cc(N2CC[C@@H](N3CCc4ccccc4C3)[C@H](O)C2)ncn1 (relative stereo) [Example 92, trans-1-(6-((5-fluoro-2-methoxyphenyl)amino)pyrimidin-4-yl)-4-(3,4-dihydroisoquinolin-2(1H)-yl)piperidin-3-ol] | < 100
O=C(c1cc(Nc2cccc(N3CCCC3)c2)ncn1)N1CC[C@H](N2CCc3ccccc3C2)[C@@H](O)C1 [Example 108] | < 100
CC(C)(C)c1ccc(Nc2cc(N3CC[C@H](N4CCc5ccccc5C4)[C@@H](O)C3)ncn2)cc1 (relative stereo) [Example 39, trans-1-(6-((4-t-butylphenyl)amino)pyrimidin-4-yl)-4-(3,4-dihydroisoquinolin-2(1H)-yl)piperidin-3-ol] | < 100
O[C@H]1CN(c2cc(Nc3cccc(C4CC4)c3)ncn2)CC[C@@H]1N1CCc2ccccc2C1 (relative stereo) [Example 35, trans-1-(6-((3-cyclopropylphenyl)amino)pyrimidin-4-yl)-4-(3,4-dihydroisoquinolin-2(1H)-yl)piperidin-3-ol] | < 100
CC(C)(C)OC(=O)N1CCC(Nc2cc(C(=O)N3CC[C@H](N4CCc5ccccc5C4)[C@@H](O)C3)ncn2)CC1 (relative stereo) [Example 110, t-butyl trans-4-((6-(4-(3,4-dihydroisoquinolin-2(1H)-yl)-3-hydroxypiperidine-1-carbonyl)pyrimidin-4-yl)amino)piperidine-1-carboxylate] | < 100
O[C@H]1CN(c2cc(Nc3ccc(F)cc3)ncn2)CC[C@@H]1N1CCc2ccccc2C1 (relative stereo) [Example 30, trans-4-(3,4-dihydroisoquinolin-2(1H)-yl)-1-(6-((4-fluorophenyl)amino)-pyrimidin-4-yl)piperidin-3-ol] | < 100
N#CC1CCC(Nc2cc(C(=O)N3CC[C@H](N4CCc5ccccc5C4)[C@@H](O)C3)ncn2)CC1 (stereo partly drawn) [Example 138, 4-((6-(trans-4-(3,4-dihydroisoquinolin-2(1H)-yl)-3-hydroxypiperidine-L-carbonyl)pyrimidin-4-yl)amino)cyclohexane-1-carbonitrile] | < 100
CC(=O)N1CCC(Nc2cc(C(=O)N3CC[C@@H](N4CCc5ccccc5C4)[C@H](O)C3)nc(SC(C)C)n2)CC1 [Example 155, 1-(4-((6-((3R,4R)-4-(3,4-dihydroisoquinolin-2(1H)-yl)-3-hydroxy-piperidine-1-carbonyl)-2-(isopropylthio)pyrimidin-4-yl)amino)piperidin-1-yl)ethan-1-one hydrochloride] | < 100
C=Cc1nc(NC2CCN(C(C)=O)CC2)cc(C(=O)N2CC[C@@H](N3CCc4ccccc4C3)[C@H](O)C2)n1 [Example 152, 1-(4-((6-((3R,4R)-4-(3,4-dihydroisoquinolin-2(1H)-yl)-3-hydroxypiperidine-1-carbonyl)-2-vinylpyrimidin-4-yl)amino)piperidin-1-yl)ethan-1-one] | < 100
CC(=O)N1CCC(Nc2cc(C(=O)N3CC[C@H](N4CCc5ccccc5C4)[C@@H](O)C3)nc(C)n2)CC1 (relative stereo) [Example 111, trans-1-(4-((6-(4-(3,4-dihydroisoquinolin-2(1H)-yl)-3-hydroxypiperidine-1-carbonyl)-2-methylpyrimidin-4-yl)amino)piperidin-1-yl)ethan-1-one] | < 100
O[C@H]1CN(c2cc(Nc3ccccc3OC(F)(F)F)ncn2)CC[C@@H]1N1CCc2ccccc2C1 (relative stereo) [Example 84, trans-4-(3,4-dihydroisoquinolin-2(1H)-yl)-1-(6-((2-(trifluoromethoxy)-phenyl)amino)pyrimidin-4-yl)piperidin-3-ol] | < 100
CC(C)(C)c1ccccc1Nc1cc(N2CC[C@H](N3CCc4ccccc4C3)[C@@H](O)C2)ncn1 (relative stereo) [Example 56, trans-4-(3,4-dihydroisoquinolin-2(1H)-yl)-1-(6-((2-t-butylphenyl)amino)pyrimidin-4-yl)piperidin-3-ol] | < 100
O[C@H]1CN(c2cc(Nc3ccccc3)ncn2)CC[C@@H]1N1CCc2ccccc2C1 (relative stereo) [Example 24, trans-4-(3,4-dihydroisoquinolin-2(1H)-yl)-1-(6-(phenylamino)-pyrimidin-4-yl)piperidin-3-ol] | < 100
CNC(=O)c1cccc(Nc2cc(C(=O)N3CC[C@H](N4CCc5ccccc5C4)[C@@H](O)C3)ncn2)c1 (relative stereo) [Example 134, trans-3-((6-(4-(3,4-dihydroisoquinolin-2(1H)-yl)-3-hydroxypiperidine-1-carbonyl)pyrimidin-4-yl)amino)-N-methylbenzamide] | < 100
C#Cc1nc(NC2CCN(C(C)=O)CC2)cc(C(=O)N2CC[C@@H](N3CCc4ccccc4C3)[C@H](O)C2)n1 [Example 150, 1-(4-((6-((3R,4R)-4-(3,4-dihydroisoquinolin-2(1H)-yl)-3-hydroxypiperidine-1-carbonyl)-2-ethynylpyrimidin-4-yl)amino)piperidin-1-yl)ethan-1-one] | < 100
O[C@H]1CN(c2cc(Nc3ccc(Cl)cc3)ncn2)CC[C@@H]1N1CCc2ccccc2C1 (relative stereo) [Example 62, trans-4-(3,4-dihydroisoquinolin-2(1H)-yl)-1-(6-((4-chlorophenyl)amino)pyrimidin-4-yl)piperidin-3-ol] | < 100
CC(=O)N1CCCC(Nc2cc(C(=O)N3CC[C@H](N4CCc5ccccc5C4)[C@@H](O)C3)ncn2)C1 (relative stereo) [Example 106, trans-1-(3-((6-(4-(3,4-dihydroisoquinolin-2(1H)-yl)-3-hydroxypiperidine-1-carbonyl)pyrimidin-4-yl)amino)piperidin-1-yl)ethan-1-one] | < 100
CC(=O)N1CCC(Nc2cc(C(=O)N3CC[C@H](N4CCc5ccccc5C4)[C@@H](O)C3)ncn2)CC1 (relative stereo) [Example 17, trans-1-(4-((6-(4-(3,4-dihydroisoquinolin-2(1H)-yl)-3-hydroxypiperidine-1-carbonyl)pyrimidin-4-yl)amino)piperidin-1-yl)ethanone] | < 100
CC(=O)N1CCC(Nc2cc(C(=O)N3CC[C@@H](N4CCc5ccccc5C4)[C@H](O)C3)nc(N3CCN(C)CC3)n2)CC1 [Example 149, 1-(4-((6-((3R,4R)-4-(3,4-dihydroisoquinolin-2(1H)-yl)-3-hydroxypiperidine-1-carbonyl)-2-(4-methylpiperazin-1-yl)pyrimidin-4-yl)amino)piperidin-1-yl)ethan-1-one] | < 100
O[C@H]1CN(c2cc(Nc3cccc4c3OCO4)ncn2)CC[C@@H]1N1CCc2ccccc2C1 [Example 83, trans-1-(6-(benzo[d][1,3]dioxazol-4-ylamino)pyrimidin-4-yl)-4-(3,4-dihydroisoquinolin-2(1H)-yl)piperidin-3-ol] | < 100
O=C(C(=O)N1CCC2(CC1)CC(Nc1cc(C(=O)N3CC[C@H](N4CCc5ccccc5C4)[C@@H](O)C3)ncn1)C2)C1CC1 (relative stereo) [Example 98, 1-cyclopropyl-2-(2-((6-(trans-4-(3,4-dihydroisoquinolin-2(1H)-yl)-3-hydroxypiperidine-1-carbonyl)pyrimidin-4-yl)amino)-7-azaspiro[3.5]nonan-7-yl)ethane-1,2-dione] | < 100
O[C@@H]1CN(c2cc(Nc3ccccc3N3CCCC3)ncn2)CC[C@H]1N1CCc2ccccc2C1 (relative stereo) [Example 80, trans-4-(3,4-dihydroisoquinolin-2(1H)-yl)-1-(6-((2-(pyrrolidin-1-yl)phenyl)amino)pyrimidin-4-yl)piperidin-3-ol] | < 100
O[C@H]1CN(c2cc(Nc3cccc4c3OCCO4)ncn2)CC[C@@H]1N1CCc2ccccc2C1 (relative stereo) [Example 94, trans-1-(6-((2,3-dihydrobenzo[b][1,4]dioxin-5-yl)amino)pyrimidin-4-yl)-4-(3,4-dihydroisoquinolin-2(1H)-yl)piperidin-3-ol] | < 100
O[C@@H]1CN(c2cc(Nc3ccc(N4CCCC4)cc3)ncn2)CC[C@H]1N1CCc2ccccc2C1 (relative stereo) [Example 95, trans-4-(3,4-dihydroisoquinolin-2(1H)-yl)-1-(6-((4-(pyrrolidin-1-yl)phenyl)amino)pyrimidin-4-yl)piperidin-3-ol] | < 100
CCC(CC)Oc1nc(NC2CCN(C(C)=O)CC2)cc(C(=O)N2CC[C@@H](N3CCc4ccccc4C3)[C@H](O)C2)n1 [Example 141, 1-(4-((6-((3R,4R)-4-(3,4-dihydro-4,4-dideuterium-isoquinolin-2(1H)-yl)-3-hydroxypiperidine-1-carbonyl)-2-(pentane-3-oxy)pyrimidin-4-yl)amino)piperidin-1-yl)-ethan-1-one] | < 100
